These results are taken from article PMC11819763, “Activity of Potassium Channel BmK-NSPK Inhibitor Regulated by Basic Amino Acid Residues: Novel Insight into the Diverse Peptide Pharmacology” (Molecules, 2025).

The test system of one assay is hKv1.1 channel. Put plainly: Whole-cell patch clamp, hKv1.1 channel currents. Format: cell-based, human. Particulars: 1 μM peptide, mean ± SE, n ≥ 3, SEM. From the text:
(§1) The pRc/CMV-hKv1.3 was kindly provided by Professor Stephan Grissmer (University of Ulm, Ulm, Germany) and Professor Olaf Pongs (Zentrum für Molekulare Neurobiologie der Universität Hamburg, Hamburg, Germany). The cDNAs encoding hKv1.1 and hKv1.2 (from Professor Stephan Grissmer, University of Ulm, Ulm, Germany) were subcloned into the vector pIRES2-EGFP (TaKaRa Clontech, Mountain View, CA, USA). The cDNAs encoding hKv1.6 were subcloned into the vector pcDNA 3.1(+) (TaKaRa Clontech, Mountain View, CA, USA). A QuikChange Site-Directed Mutagenesis Kit (Stratagene, La Jolla, CA, USA) was used to produce the mutants based on the wild-type hKv1.3 channel plasmids. All plasmids and their mutants were verified by DNA sequencing before the expression. The three channel chimeras were, respectively, named by hKv1.3-M1 (425DPTSGFS432 → 425ERESQFP432), hKv1.3-M2 (452HPV456 → 452VPT456) and hKv1.3-M3 (425DPTSGFS432 → 425ERESQFP432, 452HPV456 → 452VPT456).
(§2) In a 5% CO2 incubator at 37 °C, HEK293T cells were cultured in DMEM medium (Gibco, Grand Island, NY, USA) supplemented with 10% fetal bovine serum and 1% penicillin/streptomycin. Potassium channel plasmids and pEGFP-N1 were co-transfected into the HEK293 cells using the ExFect Transfection Reagent (Vazyme, Nanjin, China). After one day of transfection, the potassium currents were recorded, and the positive cells were selected based on the presence of GFP fluorescence.
(§3) Whole-cell current measurement and data acquisition were performed using an EPC-10 patch-clamp amplifier controlled by Pulse (HEKA Elektronik, Lambrecht, Germany). The potassium currents were recorded according to the recording protocol for the Kv1 channel, as described in previously published references. Peptides were dissolved in an external solution containing 0.01% BSA for electrophysiological experiments. […]

The target in the next assay is T1, hKv1.3 channel (Homo sapiens, UniProt P22001).
T1 construct: expressed in transfected cells; host or cells: HEK293T cells, co-transfected with pEGFP-N1
T1 sequence (P22001 whole entry): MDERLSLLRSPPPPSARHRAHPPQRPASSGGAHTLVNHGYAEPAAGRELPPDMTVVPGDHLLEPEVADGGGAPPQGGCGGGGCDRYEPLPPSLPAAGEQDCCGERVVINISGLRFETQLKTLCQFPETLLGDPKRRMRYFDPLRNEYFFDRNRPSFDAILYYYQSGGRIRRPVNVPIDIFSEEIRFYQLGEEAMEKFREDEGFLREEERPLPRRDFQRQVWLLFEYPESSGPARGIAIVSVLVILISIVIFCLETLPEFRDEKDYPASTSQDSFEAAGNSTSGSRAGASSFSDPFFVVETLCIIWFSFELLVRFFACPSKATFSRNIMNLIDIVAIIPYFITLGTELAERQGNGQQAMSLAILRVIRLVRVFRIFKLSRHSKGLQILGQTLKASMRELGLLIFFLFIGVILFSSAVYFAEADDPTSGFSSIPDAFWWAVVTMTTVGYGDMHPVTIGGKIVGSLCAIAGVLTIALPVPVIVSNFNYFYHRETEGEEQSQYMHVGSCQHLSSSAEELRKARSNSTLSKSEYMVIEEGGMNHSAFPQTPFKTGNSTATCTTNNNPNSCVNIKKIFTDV
The assay can be described thus: Whole-cell patch clamp, hKv1.3 channel currents in HEK293T cells. Format: cell-based. Particulars: from IC50 values on hKv1.3 channel. From the text:
In order to verify the differential pharmacological activities between BmK-NSPK, MeuKTX, KTX-2 and KTX-3, their recombinant peptides were produced according to our previous procedure. […] Then, MALDI-TOF-MS was further used to analyze BmK-NSPK. The determined molecular mass was […], which well corresponds to its calculated value of 3659.8 Da. The circular dichroism (CD) spectra also indicated the overall similarity to the secondary structures between BmK-NSPK, MeuKTX, KTX-2 and KTX-3 peptides. […] Subsequently, the patch clamp technique was used to characterize the pharmacological activities of BmK-NSPK, MeuKTX, KTX-2 and KTX-3 peptides according to our previously described procedure. […]
In a 5% CO2 incubator at 37 °C, HEK293T cells were cultured in DMEM medium (Gibco, Grand Island, NY, USA) supplemented with 10% fetal bovine serum and 1% penicillin/streptomycin. […] After one day of transfection, the potassium currents were recorded, and the positive cells were selected based on the presence of GFP fluorescence.
Whole-cell current measurement and data acquisition were performed using an EPC-10 patch-clamp amplifier controlled by Pulse (HEKA Elektronik, Lambrecht, Germany). The potassium currents were recorded according to the recording protocol for the Kv1 channel, as described in previously published references. […]

In a further assay the test system is hKv1.2 channel. Put plainly: Whole-cell patch clamp, hKv1.2 channel currents. The assay is classed as cell-based, human. The settings on record: 1 μM peptide, mean ± SE, n ≥ 3, SEM.
Text: as §1, §2, §3

The test system of another assay is hKv1.6 channel. Put plainly: Whole-cell patch clamp, hKv1.6 channel currents. The settings on record: 1 μM peptide, mean ± SE, n ≥ 3, SEM. The assay is classed as cell-based, human.
Text: as §1, §2, §3

Assay [1] relates to hKv1.3-M3 channel (turret, pore helix and filter region of hKv1.3 replaced by hKv1.2 regions). The assay can be described thus: Whole-cell patch clamp, chimeric hKv1.3-M3 channel currents. The assay is classed as cell-based, human. The settings on record: mean ± SE, n ≥ 3, SEM.
Text: as §1, §2
(§4) Whole-cell current measurement and data acquisition were performed using an EPC-10 patch-clamp amplifier controlled by Pulse (HEKA Elektronik, Lambrecht, Germany). The potassium currents were recorded according to the recording protocol for the Kv1 channel, as described in previously published references. Peptides were dissolved in an external solution containing 0.01% BSA for electrophysiological experiments. The patch pipette solution contained 140 mM KF (Sigma, St. Louis, MC, USA), 2 mM MgCl2 (Sinopharm Chemical Reagent Co., Ltd., Shanghai, China), 1 mM EGTA (Sigma) and 10 mM HEPES (neoFroxx, Einhausen, Hessen, Germany) (pH adjusted to 7.4 with KOH (Sinopharm Chemical Reagent Co., Ltd., Shanghai, China)), and the bath solution contained 4.5 mM KCl, 160 Mm NaCl (Sinopharm Chemical Reagent Co., Ltd., Shanghai, China), 5 mM HEPES, 2 mM CaCl2 (Sinopharm Chemical Reagent Co., Ltd., Shanghai, China) and 1 mM MgCl2 (pH adjusted to 7.4 with NaOH (Sinopharm Chemical Reagent Co., Ltd., Shanghai, China)).
(§5) Graphing and data analysis were conducted using GraphPad Prism software (Version 8.0, San Diego, CA, USA), ClampFit software (version 10.2, Molecular Devices, Sunnyvale, CA, USA), and SigmaPlot software (version 12.0, IBM SPSS, Chicago, IL, USA). The dose–response relationship between the channel current and peptide inhibition was modeled by the modified Hill equation: Ipeptide/Icontrol = 1/{1 + [peptide]/IC50}, where Ipeptide represents the potassium current under peptide inhibition, Icontrol represents the peak current, IC50 is the half-maximal inhibition concentration and [peptide] represents the peptide concentration. The IC50 was obtained by fitting the Hill equation. Results are presented as mean ± SE, with each sample tested on at least three cells (n ≥ 3).

Assay [2] has as its system hKv1.3-M2 channel (filter region of hKv1.3 substituted by hKv1.2 region). The assay can be described thus: Whole-cell patch clamp, chimeric hKv1.3-M2 channel currents. The assay is classed as cell-based, human. The settings on record: mean ± SE, n ≥ 3, SEM. As for the experimental part: Apart from the chimeric hKv1.3-M1, this work further constructed the chimeric hKv1.3-M2 channel, in which the filter region of hKv1.3 channel was substituted by the equivalent region of hKv1.2 channel (Figure 6A). Pharmacological experiments 100 nM and 1 μM MeuKTX were able to inhibit 78.3 ± 4.9% and 95.9 ± 1.3% of hKv1.3-M2 channel currents, respectively, which indicated the minor effect of channel filter region on MeuKTX binding (Figure 6B). However, more significant effects were also observed for BmK-NSPK analogs with different numbers of basic residues.
as §1, §2, §4, §5

Assay [3] has as its system hKv1.3-M1 channel (turret domain of hKv1.3 substituted by hKv1.2 region). The assay can be described thus: Whole-cell patch clamp, chimeric hKv1.3-M1 channel currents. Particulars: mean ± SE, n ≥ 3, SEM. The assay is classed as cell-based, human. As for the experimental part: In order to further investigate the effect of basic residue number on BmK-NSPK pharmacology, the activities of BmK-NSPK analogs were also tested on the Kv1.3 channel chimeras in this work. […] Based on the weak inhibition potencies of BmK-NSPK-7K and BmK-NSPK-8K towards hKv1.2 channel (Figure 5C,D), the work first constructed the chimeric hKv1.3-M1, in which the turret domain of hKv1.3 channel was substituted by the equivalent region of hKv1.2 channel (Figure 6A). Pharmacological experiments with 100 nM and 1 μM MeuKTX were able to inhibit 45.7 ± 7.9% and 82.8 ± 6.1% of hKv1.3-M1 channel currents, respectively (Figure 6B).
as §1, §2, §4, §5

Positions of bridges follow the written chain, without caps; N, C: chain ends. Residues, ends and D or L forms follow the SMILES beside them.

Consider `CSCC[C@@H]1NC(=O)CNC(=O)[C@H](C)NC(=O)[C@H](CC(=O)O)NC(=O)[C@H](CCCCN)NC(=O)[C@@H]2CSSC[C@@H](C(=O)N[C@H](C(=O)N3CCC[C@H]3C(=O)N[C@@H](CCCCN)C(=O)NCC(=O)O)[C@@H](C)O)NC(=O)[C@H](CC(=O)O)NC(=O)[C@@H]3CSSC[C@H](NC(=O)[C@H](CCC(N)=O)NC(=O)CNC(=O)[C@H](CO)NC(=O)[C@H](Cc4c[nH]cn4)NC(=O)[C@H](CCCCN)NC(=O)[C@@H](NC(=O)[C@H](CCCCN)NC(=O)[C@@H](NC(=O)[C@H](CC(N)=O)NC(=O)[C@H](CCCCN)NC(=O)CNC(=O)[C@@H](N)C(C)C)C(C)C)CSSC[C@H](NC(=O)[C@H](CCCCN)NC(=O)CNC(=O)[C@H](Cc4ccccc4)NC(=O)[C@H](CCCNC(=N)N)NC1=O)C(=O)N[C@@H](CCSC)C(=O)N[C@@H](CC(N)=O)C(=O)NCC(=O)N[C@@H](CCCCN)C(=O)N3)C(=O)N[C@@H](CC(C)C)C(=O)N[C@@H](CCCCN)C(=O)N1CCC[C@H]1C(=O)N2` [BmK-NSPK-8K] (H-VGKNVKCKHSGQCLKPCKDAGMRFGKCMNGKCDCTPKG-OH; disulfide 7-27, 13-32, 17-34 (inferred); N-terminus and C-terminus assumed), for which the “inhibition of hKv1.1 channel currents” value with hKv1.1 channel is 84.3 ± 1.8%. Further, the “fold decreased activity on hKv1.3 compared with BmK-NSPK-7K” value on hKv1.3 channel is reported as ~ 10 fold. Moreover, in the assay on hKv1.2 channel, the “inhibition of hKv1.2 channel currents” value came to 12.3 ± 1.8%. The “inhibition of hKv1.6 channel currents” value in the assay on hKv1.6 channel is 34.1 ± 4.8%. Also, the figures for the “inhibition of hKv1.3-M3 channel currents” value in assay [1] (100 nM peptide) and in assay [1] (1 μM peptide) were 2.7 ± 0.92% and 5.1± 1.4%, respectively. Moreover, the “inhibition of hKv1.3-M2 channel currents” value in assay [2] (100 nM peptide) was found to be 8.8 ± 2.6%; in assay [2] (1 μM peptide), 51.3 ± 1.5%. The “inhibition of hKv1.3-M1 channel currents” value in assay [3] (100 nM peptide) amounted to 4.5 ± 1.2%; in assay [3] (1 μM peptide), 27.7 ± 4.0%.
